Reference: US20160160267A1, “COMPOSITION FOR EVALUATING OR PREDICTING PATIENTS THERAPEUTIC RESPONSE TO METHORMIN” (SNU R&DB FOUNDATION, priority 2013, published 2016)

Assays:
[1] = system: AMPKα1 (AMP-activated protein kinase alpha 1); assay: Expression of AMPKα1 in liver, quantitative PCR relative to GAPDH; format: in vivo, mouse (C57BL/6); conditions: female, metformin during high-fat diet, P=0.023
Procedure: (§1) FIG. 4a to FIG. 5b comparatively analyze the amount of gene expression of internal control GAPDH and biomarkers using relative quantification method (2^−ΔΔCt(ΔΔCt=(Ct.Target−Ct.GAPDH)Group1−(Ct.Target−Ct.GAPDH)Group2)). Statistical significance is assessed by Mann-Whitney U Test. For quantification, SYBR qPCR was repeatedly conduced three times.
(§2) Basically, body weight and fasting glucose were confirmed once a week. To confirm impaired glucose tolerance, oral glucose tolerance test (OGTT) was conducted. And, total cholesterol, high-density lipoprotein (HDL), low-density lipoprotein (LDL) were analyzed in serum, and insulin concentration in blood was measured using flow cytometry. To grasp the expression degree of metabolic and inflammatory factors, liver, epididymal adipose tissue, small intestine were homogenized to extract total RNA, which was quantitatively analyzed by polymerase chain reaction (PCR). In the liver, AMPKα1 (AMP-activated protein kinase alpha 1), PPARα (Peroxisome proliferator-activated eceptor alpha), GLUT2 (Glucose transporter 2), G6Pase (Glucose 6-phosphatase) were measured; in the adipose tissue, adiponectin, leptin, MCP-1 (Monocyte chemoattractant protein-1), TNFα (Tumor necrosis factor alpha) IL-6 (Interleukin-6) were measured; and in the small intestine, MUC2 and MUC5 (Mucin genes) were measured. […]

[2] = system: PPARα; assay: Expression of PPARα in liver, quantitative PCR relative to GAPDH; format: in vivo, mouse (C57BL/6); conditions: female, metformin during high-fat diet, P=0.008
Procedure: as §1, §2

[3] = Metabolism-related index (body weight, fasting glucose, serum total cholesterol, HDL) in high-fat diet mouse; format: in vivo, mouse (C57BL/6); conditions: high-fat diet mice
Procedure: Basically, body weight and fasting glucose were confirmed once a week. To confirm impaired glucose tolerance, oral glucose tolerance test (OGTT) was conducted. And, total cholesterol, high-density lipoprotein (HDL), low-density lipoprotein (LDL) were analyzed in serum, and insulin concentration in blood was measured using flow cytometry. To grasp the expression degree of metabolic and inflammatory factors, liver, epididymal adipose tissue, small intestine were homogenized to extract total RNA, which was quantitatively analyzed by polymerase chain reaction (PCR). In the liver, AMPKα1 (AMP-activated protein kinase alpha 1), PPARα (Peroxisome proliferator-activated eceptor alpha), GLUT2 (Glucose transporter 2), G6Pase (Glucose 6-phosphatase) were measured; in the adipose tissue, adiponectin, leptin, MCP-1 (Monocyte chemoattractant protein-1), TNFα (Tumor necrosis factor alpha) IL-6 (Interleukin-6) were measured; and in the small intestine, MUC2 and MUC5 (Mucin genes) were measured. For comparative analysis of the expression degree, relative quantification using housekeeping gene GAPDH was applied, and statistical significance was confirmed with Mann-Whitney U test. As the primer for MUC5AC, QuantiTect® Primer Assay (Cat. no.: QT01161104, Qiagen) was used.

[4] = system: MUC2; assay: Expression of mucin gene MUC2 in small intestine; format: in vivo, mouse (C57BL/6); conditions: female, after administration of metformin
Procedure: as §1, §2

[5] = system: rumen microorganism communities; assay: Analysis of rumen microbiome in feces samples (16S rRNA V2-V3 pyrosequencing, UniFrac, PCoA, LEfSe); format: in vivo, mouse (C57BL/6)
Procedure: Total genome DNA of bacteria in the feces sample was extracted using a kit. The V2 region and the V3 region of 16S rRNA gene were amplified through PCR using bar coded universal primer as described in Table 3 and Table 4, and pyrosequencing was conducted using GS-FLX system. For the secured nucleotide sequence, data was analyzed using QIIME (Quantitative Insights Into Microbial Ecology) 1.5.0 (http://qiime.sourceforge.net). Before the sequence analysis, noise removal of the sequence data set was conducted, and low quality sequence less than 200 bp was removed. To the nucleotide sequence, OUT (Operational taxonomic units) was assigned based on 97% analogous level to conduct system analysis. For the nucleotide sequence obtained from each feces sample, UniFrac, PCoA (Principal Coordinate Analysis), LEfSe (LDA Effect Size) analysis were conducted for comparative analysis. And, based on the KEGG (Kyoto Encyclopedia of Genes and Genomes) pathway data from microbiome, PICRUSt (Phylogenetic Investigation of Communities by Reconstruction of Unobserved States) was conducted to predict a specifically increasing metabolic pathway.

[6] = system: G6Pase (Glucose 6-phosphatase); assay: Expression of G6Pase in liver, quantitative PCR relative to GAPDH; format: in vivo, mouse (C57BL/6); conditions: male, metformin during high-fat diet
Procedure: as §1, §2

[7] = system: TNFα (Tumor necrosis factor alpha); assay: Expression of TNFα in epididymal adipose tissue, quantitative PCR relative to GAPDH; format: in vivo, mouse (C57BL/6); conditions: female, metformin during high-fat diet, P=0.001
Procedure: as §1, §2

[8] = system: GLUT2 (Glucose transporter 2); assay: Expression of GLUT2 in liver, quantitative PCR relative to GAPDH; format: in vivo, mouse (C57BL/6); conditions: female, metformin during high-fat diet, P=0.007
Procedure: as §1, §2

[9] = system: MCP-1 (Monocyte chemoattractant protein-1); assay: Expression of MCP-1 in epididymal adipose tissue, quantitative PCR relative to GAPDH; format: in vivo, mouse (C57BL/6); conditions: male, metformin during high-fat diet, P=0.008
Procedure: as §1, §2

[10] = system: leptin; assay: Expression of leptin in epididymal adipose tissue, quantitative PCR relative to GAPDH; format: in vivo, mouse (C57BL/6); conditions: male, metformin during high-fat diet, P=0.004
Procedure: as §1, §2

[11] = Tissue inspection (tissue weights, H&E staining, steatosis); conditions: metformin during high-fat diet, compared to high-fat diet group
Source text: Male and female C57BL/6 species of the same age of the week were purchased from Orientbio. […] Epididymis adipose tissue, liver, small intestine, pancreas, and blood were extracted, and among them, liver, small intestine, and pancreas were fixed to 4% paraformaldehyde to conduct hematoxylin and eosin (H&E) staining. Briefly, tissue was cut to 4 μm, stained with alum haematoxylin and rinsed with water flow. Thereafter, the colour was changed with 0.3% acid alcohol, followed by additional staining with eosin, dehydrating and fixing. The degree of steatosis and inflammation of the tissue was read by pathologist.

[12] = system: MUC5; assay: Expression of mucin gene MUC5 in small intestine; format: in vivo, mouse (C57BL/6); conditions: female, after administration of metformin
Procedure: as §1, §2

[13] = 10 weeks after metformin administration
[14] = after administration of metformin (300 mg/kg daily, oral)
[15] = after administration of metformin during high-fat diet

Question: With `CN(C)C(=N)NC(=N)N` [metformin, N,N-Dimethylimidodicarbonimidic diamide] as the molecule, how does the “AMPKα expression in liver” value [1] read?
Answer: decreased

Question: What about the “PPARα expression in liver” value [2] of the same molecule?
Answer: increased

Question: And the “high density lipoprotein (HDL)” value [3, 13]?
Answer: significantly decreased

Question: What about the total cholesterol [3, 13] of the same molecule?
Answer: significantly decreased

Question: What about the “blood glucose (fasting glucose)” value [3, 14] of the same molecule?
Answer: significantly decrease

Question: What about the body weight [3, 14] of the same molecule?
Answer: significantly decrease

Question: What about the “expression degree of MUC2 in small intestine” value [4] of the same molecule?
Answer: significantly increased

Question: What about the “proportion of phylum Proteobacteria” value [5, 15] of the same molecule?
Answer: 2.1±2.8%

Question: And the “proportion of phylum Verrucomicrobia” value [5, 15]?
Answer: 12.4±5.3%

Question: And the “proportion of phylum Bacteroidetes” value ([5]; high-fat diet, after administration of metformin)?
Answer: 77.5±8.7%

Question: And the “microbial diversity in feces” value ([5]; metformin administration during high-fat diet)?
Answer: decreased

Question: And the “microbial diversity in feces” value ([5]; metformin administration during normal diet)?
Answer: did not cause any change in diversity

Question: What about the “Akkermansia abundance, at species level” value ([5]; metformin during high-fat diet) of the same molecule?
Answer: significantly increased

Question: And the “Bacteroides abundance, at species level” value ([5]; metformin during high-fat diet)?
Answer: significantly increased

Question: And the “relative bacterial abundance by LDA scores, genus Akkermansia” value ([5]; metformin during high-fat diet)?
Answer: increased

Question: And the “relative bacterial abundance by LDA scores, genus Blautia” value ([5]; metformin during high-fat diet)?
Answer: increased

Question: And the “relative bacterial abundance by LDA scores, genus Clostridium” value ([5]; metformin during high-fat diet)?
Answer: decreased

Question: What about the “relative bacterial abundance by LDA scores, genus Shigella” value ([5]; metformin during high-fat diet) of the same molecule?
Answer: increased

Question: What about the “UniFrac distance to the group treated with high-fat diet only” value ([5]; metformin during high-fat diet, versus difference of the diet-change group (HFD-ND) to HFD only) of the same molecule?
Answer: larger

Question: What about the “relative bacterial abundance, Alistipes” value ([5]; metformin during normal diet) of the same molecule?
Answer: increased

Question: And the “relative bacterial abundance, Lactobacillus iners” value ([5]; metformin during normal diet)?
Answer: relatively decreased

Question: And the “relative bacterial abundance, genus Akkermansia” value ([5]; metformin during normal diet)?
Answer: significantly increased

Question: And the “relative bacterial abundance, genus Clostridium” value ([5]; metformin during normal diet)?
Answer: significantly increased

Question: And the “G6Pase expression in liver” value [6]?
Answer: significantly decreased

Question: What about the “TNFα expression in epididymal adipose tissue” value [7] of the same molecule?
Answer: significantly decreased

Question: And the “GLUT2 expression in liver” value [8]?
Answer: decreased

Question: And the “MCP-1 expression in epididymal adipose tissue” value [9]?
Answer: increased

Question: And the “leptin expression in epididymal adipose tissue” value [10]?
Answer: increased

Question: What about the liver steatosis [11] of the same molecule?
Answer: significant difference

Question: And the “weight of adipose tissue” value [11]?
Answer: significantly decreased

Question: And the weight of liver [11]?
Answer: significantly decreased

Question: And the “expression degree of MUC5 in small intestine” value [12]?
Answer: significantly increased
